Drawing on patent US11091472B2, “PI-kinase inhibitors with anti-infective activity” (The Board of Trustees of the Leland Stanford Junior …, priority 2016, dated 2021), this text covers IC50 and EC50 for 56 compounds.

In general, IC50 refers to the concentration that gives 50% inhibition. Lower therefore signals inhibition by little substance. As a reminder, the EC50 is the concentration needed to bring the measured effect to its halfway point. Read a high EC50 as a need for much substance.

One assay concerns the target PI4KIIIB (Bos taurus (Bovine), UniProt O02810). In words: PI4KIIIβ kinase assay (immunoprecipitated HA-tagged enzyme, [γ-32P]-ATP). The conditions noted are these: kinase activity. The format is biochemical.
The test system of the next assay is HRV. The assay is described as follows: Rhinovirus antiviral assay. The format is cell-based. The note with it: Human rhinovirus sp.; Table 5.
Another assay has as its system EV71. In words: EV71 antiviral assay. The format is cell-based. The note with it: Enterovirus A, Table 5.
In the next assay the target is PI3KC2G (Homo sapiens (Human), UniProt O75747). The assay is described as follows: PI3KC2G kinase assay. The note with it: kinase activity. The format is biochemical. On the procedure:
PI-kinase assay: Compounds are tested in C.1.1. PI kinase assays as described by Shokat et al., “A membrane capture assay for lipid kinase activity.” Nat. Protoc.
Selected compounds of Table 1 and 2 were prepared and tested for inhibition activity in a variety of kinase assays.

The next assay concerns the target PI4KIIIA (Homo sapiens (Human), UniProt P42356). In words: PI4KIIIα kinase assay (immunoprecipitated HA-tagged enzyme, [γ-32P]-ATP). The format is biochemical. The note with it: kinase activity.
The target in another assay is PI3K p110g (Homo sapiens (Human), UniProt P48736). In words: PI3K p110g kinase assay. The format is biochemical. The note with it: kinase activity.
Sequence of PI3K p110g (P48736 whole entry): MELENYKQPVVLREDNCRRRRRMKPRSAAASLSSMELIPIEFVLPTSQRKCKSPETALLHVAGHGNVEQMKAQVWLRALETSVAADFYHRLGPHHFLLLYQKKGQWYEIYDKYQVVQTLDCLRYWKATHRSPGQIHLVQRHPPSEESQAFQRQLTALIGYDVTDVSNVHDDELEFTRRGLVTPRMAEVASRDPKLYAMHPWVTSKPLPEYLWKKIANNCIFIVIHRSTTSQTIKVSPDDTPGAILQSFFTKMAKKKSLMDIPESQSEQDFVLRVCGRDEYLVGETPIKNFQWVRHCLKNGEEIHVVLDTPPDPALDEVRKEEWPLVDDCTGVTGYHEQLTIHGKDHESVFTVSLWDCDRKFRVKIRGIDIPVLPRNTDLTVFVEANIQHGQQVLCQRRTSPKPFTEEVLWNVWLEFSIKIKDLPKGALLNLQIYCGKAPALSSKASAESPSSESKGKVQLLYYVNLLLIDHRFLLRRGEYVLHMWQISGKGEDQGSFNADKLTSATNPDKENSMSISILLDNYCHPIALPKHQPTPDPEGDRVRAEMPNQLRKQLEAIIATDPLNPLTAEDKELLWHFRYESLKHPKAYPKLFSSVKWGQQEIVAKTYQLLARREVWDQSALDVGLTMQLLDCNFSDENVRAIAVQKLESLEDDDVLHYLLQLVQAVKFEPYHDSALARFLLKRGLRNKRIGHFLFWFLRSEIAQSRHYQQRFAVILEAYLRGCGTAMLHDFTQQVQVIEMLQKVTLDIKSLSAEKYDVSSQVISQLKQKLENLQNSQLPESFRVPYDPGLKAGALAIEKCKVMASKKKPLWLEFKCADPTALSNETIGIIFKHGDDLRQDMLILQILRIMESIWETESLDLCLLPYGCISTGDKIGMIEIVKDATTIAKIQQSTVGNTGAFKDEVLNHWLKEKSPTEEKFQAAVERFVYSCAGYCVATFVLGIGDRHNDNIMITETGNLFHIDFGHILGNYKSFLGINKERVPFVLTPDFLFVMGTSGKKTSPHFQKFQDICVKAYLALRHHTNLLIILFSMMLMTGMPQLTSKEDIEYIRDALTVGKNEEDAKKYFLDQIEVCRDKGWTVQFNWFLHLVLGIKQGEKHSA

Sequence of PI4KIIIA (P42356 whole entry): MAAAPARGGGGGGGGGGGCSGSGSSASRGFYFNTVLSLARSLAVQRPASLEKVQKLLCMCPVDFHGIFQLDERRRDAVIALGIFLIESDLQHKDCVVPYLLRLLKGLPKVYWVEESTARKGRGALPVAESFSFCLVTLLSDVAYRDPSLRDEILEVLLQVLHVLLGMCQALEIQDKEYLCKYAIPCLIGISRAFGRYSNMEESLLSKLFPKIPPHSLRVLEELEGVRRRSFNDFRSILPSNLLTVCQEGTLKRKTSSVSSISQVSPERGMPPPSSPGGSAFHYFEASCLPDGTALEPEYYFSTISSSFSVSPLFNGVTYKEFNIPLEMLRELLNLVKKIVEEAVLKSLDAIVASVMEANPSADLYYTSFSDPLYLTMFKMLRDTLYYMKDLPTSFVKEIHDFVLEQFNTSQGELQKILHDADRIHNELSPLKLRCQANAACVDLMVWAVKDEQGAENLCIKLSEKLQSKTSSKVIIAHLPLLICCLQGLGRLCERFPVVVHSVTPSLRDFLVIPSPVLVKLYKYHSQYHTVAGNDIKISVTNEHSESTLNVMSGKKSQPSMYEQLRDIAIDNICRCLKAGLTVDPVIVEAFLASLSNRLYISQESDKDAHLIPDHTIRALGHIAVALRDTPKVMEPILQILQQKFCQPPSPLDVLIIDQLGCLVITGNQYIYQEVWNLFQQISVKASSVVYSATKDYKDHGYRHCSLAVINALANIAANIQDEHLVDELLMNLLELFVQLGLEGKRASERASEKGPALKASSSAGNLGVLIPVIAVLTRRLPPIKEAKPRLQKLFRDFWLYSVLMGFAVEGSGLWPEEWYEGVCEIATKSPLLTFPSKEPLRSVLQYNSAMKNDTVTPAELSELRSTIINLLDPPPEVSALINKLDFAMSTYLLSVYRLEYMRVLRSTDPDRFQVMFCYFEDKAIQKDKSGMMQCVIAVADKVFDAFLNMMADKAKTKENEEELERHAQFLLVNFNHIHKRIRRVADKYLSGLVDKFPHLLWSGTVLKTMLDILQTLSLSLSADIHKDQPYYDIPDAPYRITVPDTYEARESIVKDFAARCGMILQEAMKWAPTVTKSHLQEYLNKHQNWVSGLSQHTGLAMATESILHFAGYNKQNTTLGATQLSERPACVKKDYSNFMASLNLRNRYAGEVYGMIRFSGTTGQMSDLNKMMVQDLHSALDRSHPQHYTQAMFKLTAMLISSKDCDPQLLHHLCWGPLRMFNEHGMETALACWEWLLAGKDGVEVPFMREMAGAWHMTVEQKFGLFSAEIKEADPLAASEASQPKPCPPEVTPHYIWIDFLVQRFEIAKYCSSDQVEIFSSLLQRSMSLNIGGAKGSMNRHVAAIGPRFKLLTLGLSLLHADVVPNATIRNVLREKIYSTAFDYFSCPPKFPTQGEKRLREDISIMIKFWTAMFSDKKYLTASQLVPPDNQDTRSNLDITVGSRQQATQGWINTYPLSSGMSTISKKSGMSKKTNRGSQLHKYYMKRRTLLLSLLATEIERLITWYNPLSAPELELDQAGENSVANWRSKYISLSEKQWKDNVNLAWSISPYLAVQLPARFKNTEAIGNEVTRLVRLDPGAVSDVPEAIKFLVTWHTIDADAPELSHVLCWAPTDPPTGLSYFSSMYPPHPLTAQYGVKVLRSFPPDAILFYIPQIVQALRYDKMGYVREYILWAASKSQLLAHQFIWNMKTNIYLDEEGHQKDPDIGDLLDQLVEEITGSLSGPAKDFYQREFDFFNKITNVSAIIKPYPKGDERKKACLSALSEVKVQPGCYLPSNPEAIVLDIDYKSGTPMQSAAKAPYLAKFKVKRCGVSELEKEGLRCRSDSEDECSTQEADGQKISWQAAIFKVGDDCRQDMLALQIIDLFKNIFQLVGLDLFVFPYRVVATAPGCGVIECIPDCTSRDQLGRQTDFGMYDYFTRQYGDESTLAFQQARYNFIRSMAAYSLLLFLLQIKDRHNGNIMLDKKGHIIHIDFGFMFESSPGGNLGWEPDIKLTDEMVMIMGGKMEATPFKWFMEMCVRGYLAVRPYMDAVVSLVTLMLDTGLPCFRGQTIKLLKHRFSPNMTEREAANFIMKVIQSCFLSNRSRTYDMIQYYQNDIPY
Sequence of PI4KIIIB (O02810 whole entry): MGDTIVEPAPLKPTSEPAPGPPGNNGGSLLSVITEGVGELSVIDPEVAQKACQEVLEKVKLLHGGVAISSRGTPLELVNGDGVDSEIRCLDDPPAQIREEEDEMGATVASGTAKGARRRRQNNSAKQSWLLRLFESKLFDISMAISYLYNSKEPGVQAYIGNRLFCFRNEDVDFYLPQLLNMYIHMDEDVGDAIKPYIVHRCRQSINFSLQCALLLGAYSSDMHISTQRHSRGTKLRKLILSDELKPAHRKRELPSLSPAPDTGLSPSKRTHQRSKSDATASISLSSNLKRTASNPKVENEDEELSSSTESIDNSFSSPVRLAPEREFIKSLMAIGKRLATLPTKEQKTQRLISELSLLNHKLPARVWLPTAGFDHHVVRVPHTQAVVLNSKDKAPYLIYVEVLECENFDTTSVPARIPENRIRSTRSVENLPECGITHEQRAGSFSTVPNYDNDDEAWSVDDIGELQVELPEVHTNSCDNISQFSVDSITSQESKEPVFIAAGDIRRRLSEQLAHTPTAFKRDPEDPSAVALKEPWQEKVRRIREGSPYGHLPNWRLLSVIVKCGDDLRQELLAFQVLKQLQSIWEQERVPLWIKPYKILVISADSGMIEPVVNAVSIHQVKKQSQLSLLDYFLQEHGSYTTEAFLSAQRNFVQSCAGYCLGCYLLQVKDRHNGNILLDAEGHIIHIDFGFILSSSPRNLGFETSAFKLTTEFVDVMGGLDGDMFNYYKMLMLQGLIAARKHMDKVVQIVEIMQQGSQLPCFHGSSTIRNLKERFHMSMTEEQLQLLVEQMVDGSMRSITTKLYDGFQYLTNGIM

As for `COc1ccc(-c2sc(NC(=O)CC3CCOCC3)nc2C)cc1S(=O)(=O)Nc1ccccc1F` [Compound S-230], the IC50 against PI4KIIIB is below 100 nM.
Consider `COc1ccc(-c2sc(NC(C)C3CCOCC3)nc2C)cc1S(=O)(=O)Nc1ccc(O)cc1` (stereo not shown) [Compound S-319], for which the EC50 in the assay with HRV and in the assay on EV71 was 1 to 100 nM each time.
`COc1ccc(-c2sc(NC(=O)CC3CCCC3)nc2C)cc1S(=O)(=O)N[C@H]1CC[C@H](O)CC1` [Compound S-151] came in with an IC50 against PI4KIIIB below 100 nM.
For `COc1ccc(-c2sc(NC(C)C3CCOCC3)nc2C)cc1S(=O)(=O)Nc1ccc(C(=O)O)cc1` (stereo not shown) [Compound S-325], the EC50 in the assay with HRV and in the assay on EV71 was 1000 to 10000 nM in each case.
Turning to `COc1ccc(-c2sc(NC(C)C3CCOCC3)nc2C)cc1S(=O)(=O)Nc1cccc(O)c1` (stereo not shown) [Compound S-320], the EC50 in the assay on HRV and with EV71 was 1 to 100 nM in each case.
`COc1ccc(-c2sc(NCC3CCCCC3)nc2C)cc1S(=O)(=O)NC1CCN(C2CC2)CC1` [Compound S-135]: the IC50 against PI4KIIIB is below 100 nM.
On the same count and under the same terms, the same measure for `COc1ccc(-c2sc(NCC3CCCCC3)nc2C)cc1S(=O)(=O)NC1CCN(C2CCCCC2)CC1` [Compound S-136]: below 100 nM.
`COc1ncc(-c2sc(NC(C)C3CCOCC3)nc2C)cc1S(=O)(=O)Nc1ccc(F)cc1Cl` (stereo not shown) [Compound S-337]: the EC50 in the assay on HRV was in the range of 100 to 1000 nM; in the assay on EV71 it was 1 to 100 nM.
The matching figures for `COc1ccc(-c2sc(NC(C)C3CCOCC3)nc2C)cc1S(=O)(=O)NC1CCNCC1` (stereo not shown) [Compound S-326]: 100 to 1000 nM and 1 to 100 nM.
As for `COc1ccc(-c2sc(NCC3CCCCC3)nc2C)cc1S(=O)(=O)NC1CCN(C(C)C)CC1` [Compound S-134], at PI4KIIIB, the IC50 is below 100 nM.
On the same count and under the same terms, the same measure for `COc1ccc(-c2sc(NC(=O)C3CCCC3)nc2C)cc1S(=O)(=O)Nc1ccc(CO)cc1` [Compound S-41]: below 100 nM.
Take `COc1ccc(-c2sc(NC(C)C3CCOCC3)nc2C)cc1S(=O)(=O)Nc1c(C)cccc1F` (stereo not shown) [Compound S-323]: the EC50 in the assay on HRV and with EV71 was below 1 nM each time.
On PI4KIIIB, `COc1ccc(-c2sc(NC(=O)CC3CCOCC3)nc2C)cc1S(=O)(=O)Nc1cccc(C)c1` [Compound S-226] had an IC50 below 100 nM.
On to `COc1ccc(-c2sc(NC(C)C3CCOCC3)nc2C)cc1S(=O)(=O)Nc1c(F)cccc1Cl` (stereo not shown) [Compound S-322], for which the EC50 with HRV and in the assay with EV71 was 1 to 100 nM throughout.
For `COc1ccc(-c2sc(NC(C)C3CCOCC3)nc2C)cc1S(=O)(=O)Nc1c(F)cncc1F` (stereo not shown) [Compound S-333], the concentration for a half-maximal effect (EC50) in the assay with HRV and in the assay on EV71 was 100 to 1000 nM in each case.
As to `COc1ccc(-c2sc(NC(C)C3CCOCC3)nc2C)cc1S(=O)(=O)Nc1ccc(O)cc1C` (stereo not shown) [Compound S-317], the EC50 in the assay with HRV and in the assay on EV71 was 1 to 100 nM in each case.
As for `COc1ncc(-c2sc(NC(C)C3CCOCC3)nc2C)cc1S(=O)(=O)Nc1ccc(O)cc1C` (stereo not shown) [Compound S-340], the EC50 in the assay on HRV and with EV71 was 1 to 100 nM in each case.
In the case of `COc1ncc(-c2sc(NC(C)C3CCOCC3)nc2C)cc1S(=O)(=O)Nc1ccccc1C` (stereo not shown) [Compound S-335], the EC50 in the assay on HRV and in the assay with EV71 was 1 to 100 nM each time.
Compound `COc1ccc(-c2sc(NC(=O)CC3CCCC3)nc2C)cc1S(=O)(=O)N1CC[C@@H](O)C1` [Compound S-153] displayed an IC50 at PI4KIIIB below 100 nM.
For `COc1ccc(-c2sc(NC3CCCCC3)nc2C)cc1S(=O)(=O)NC1CCCC1` [Compound S-129], the half-maximal inhibitory concentration (IC50) was above 10000 nM against PI3KC2G, 100 to 1000 nM against PI4KIIIB, above 10000 nM at PI4KIIIA and above 10000 nM at PI3K p110g.
`COc1ccc(-c2sc(NCC3CCCCC3)nc2C)cc1S(=O)(=O)NC1CCN(C2CCCC2)CC1` [Compound S-133] returned an IC50 against PI4KIIIB below 100 nM.
As for `COc1ccc(-c2sc(N[C@H](C)C3CCCCC3)nc2C)cc1S(=O)(=O)NC1CCCNC1` (stereo partly shown) [Compound S-148], the IC50 at PI3K p110g was above 10000 nM.
`COc1ccc(-c2sc(NC(=O)Cc3ccccc3)nc2C)cc1S(=O)(=O)Nc1ccc(O)cc1` [Compound S-49] registered an IC50 against PI4KIIIB below 100 nM.
As to `COc1ccc(-c2sc(NC(C)C3CCOCC3)nc2C)cc1S(=O)(=O)Nc1ncccc1C` (stereo not shown) [Compound S-329], the EC50 with HRV and in the assay on EV71 was 1 to 100 nM in each case.
`COc1ccc(-c2sc(NCC(C)C)nc2C)cc1S(=O)(=O)N[C@H]1CC[C@@H](O)CC1` [Compound S-222] came in with an IC50 against PI4KIIIB below 100 nM.
Same read-out and setting: under `COc1ccc(-c2sc(NC3CCCCC3)nc2C)cc1S(=O)(=O)N[C@H]1CC[C@H](O)CC1` [Compound S-166] stands below 100 nM; under `COc1ccc(-c2sc(N[C@H](C)C3CCCCC3)nc2C)cc1S(=O)(=O)N[C@@H]1CCNC1` [Compound S-197], below 100 nM.
`COC(=O)c1ccc(NS(=O)(=O)c2cc(-c3sc(NC(C)C4CCOCC4)nc3C)ccc2OC)cc1` (stereo not shown) [Compound S-324]: the EC50 with HRV and in the assay with EV71 was 1 to 100 nM each time.
Turning to `COc1ncc(-c2sc(NC(C)C3CCOCC3)nc2C)cc1S(=O)(=O)Nc1ccc(F)cc1C` (stereo not shown) [Compound S-338], the EC50 with HRV and in the assay with EV71 was 1 to 100 nM throughout.
As for `COc1ccc(-c2sc(NC(C)C3CCOCC3)nc2C)cc1S(=O)(=O)Nc1ccc(O)cc1Cl` (stereo not shown) [Compound S-318], the EC50 with HRV was 1 to 100 nM; with EV71, below 1 nM.
The compound `COc1ccc(-c2sc(NCCC3CCCCC3)nc2C)cc1S(=O)(=O)NC1CCC(O)C1` (stereo not shown) [Compound S-214] displayed an IC50 against PI3K p110g above 10000 nM.
Take `COc1ncc(-c2sc(NC(C)C3CCOCC3)nc2C)cc1S(=O)(=O)Nc1ccc(F)cc1F` (stereo not shown) [Compound S-336]: the EC50 with HRV and in the assay on EV71 was 1 to 100 nM throughout.
Consider `COc1ccc(-c2sc(NC(C)C3CCOCC3)nc2C)cc1S(=O)(=O)NC1CCC(OC(C)=O)CC1` (stereo not shown) [Compound S-327], for which the EC50 in the assay with HRV and in the assay on EV71 was 1 to 100 nM throughout.
For the compound `COc1ccc(-c2sc(N[C@@H](C)C3CCCCC3)nc2C)cc1S(=O)(=O)N[C@H]1CC[C@H](O)CC1` [Compound S-183], the IC50 against PI4KIIIB was below 100 nM.
`COc1ccc(-c2sc(NC3CCCCC3)nc2C)cc1S(=O)(=O)NC1CCCCCC1` [Compound S-131]: the IC50 against PI3KC2G is above 10000 nM; at PI4KIIIB, 100 to 1000 nM; against PI4KIIIA, above 10000 nM.
For `COc1ccc(-c2sc(NCC(C)C)nc2C)cc1S(=O)(=O)N[C@H]1CC[C@H](O)CC1` [Compound S-221], on PI4KIIIB, the half-inhibitory concentration (IC50) is below 100 nM.
The same measure, in the same setting: the same measure for `COc1ccc(-c2sc(N[C@H](C)C3CCCCC3)nc2C)cc1S(=O)(=O)N[C@H]1CC[C@@H](O)CC1` [Compound S-198]: 100 to 1000 nM; for `COc1ccc(-c2sc(N[C@@H](C)C3CCCCC3)nc2C)cc1S(=O)(=O)N[C@H]1CC[C@@H](O)CC1` [Compound S-206]: 1000 to 10000 nM.
On to `COc1ccc(-c2sc(NC(C)C3CCOCC3)nc2C)cc1S(=O)(=O)Nc1ccccc1C` (stereo not shown) [Compound S-315], for which the EC50 in the assay on HRV and in the assay on EV71 was 1 to 100 nM throughout.
`COc1ccc(-c2sc(NC(C)(C)C)nc2C)cc1S(=O)(=O)NC1CCNCC1` [Compound S-219] had an IC50 against PI4KIIIB below 100 nM.
In the case of `COc1ncc(-c2sc(NC(C)C3CCOCC3)nc2C)cc1S(=O)(=O)Nc1ccc(O)cc1F` (stereo not shown) [Compound S-334], the EC50 in the assay with HRV and in the assay with EV71 was 1 to 100 nM each time.
Take `COc1ccc(-c2sc(NC3CCCCC3)nc2C)cc1S(=O)(=O)N[C@H]1CC[C@@H](O)CC1` [Compound S-167]: on PI4KIIIB, the IC50 was below 100 nM.
With `COc1ncc(-c2sc(NC(C)C3CCOCC3)nc2C)cc1S(=O)(=O)Nc1ccc(O)cc1Cl` (stereo not shown) [Compound S-375], the EC50 in the assay with HRV and in the assay on EV71 was 1 to 100 nM each time.
Regarding `COc1ncc(-c2sc(NC(=O)CC3CCOCC3)nc2C)cc1S(=O)(=O)Nc1ccc(F)cc1F` [Compound S-258], the IC50 at PI4KIIIB fell in the range of 1000 to 10000 nM.
For `COc1ccc(-c2sc(NC(=O)CC3CCCC3)nc2C)cc1S(=O)(=O)Nc1ccc(C)nc1` [Compound S-100], the IC50 on PI4KIIIB is 100 to 1000 nM; against PI4KIIIA it was above 10000 nM; at PI3K p110g, above 10000 nM.
In the case of `COc1ncc(-c2sc(NC(C)C3CCOCC3)nc2C)cc1S(=O)(=O)Nc1ccccc1Cl` (stereo not shown) [Compound S-341], the EC50 with HRV and in the assay with EV71 was 1 to 100 nM each time.
`COc1ccc(-c2sc(NCC3CCCCC3)nc2C)cc1S(=O)(=O)NC1CCNCC1` [Compound S-123] displayed an IC50 against PI4KIIIB below 100 nM.
With `COc1ccc(-c2sc(NCCC3CCCCC3)nc2C)cc1S(=O)(=O)NC1CCNCC1` [Compound S-202], the IC50 at PI4KIIIB is below 100 nM.
Same read-out and setting: under `COc1ccc(-c2sc(NC(=O)C3CCCC3)nc2C)cc1S(=O)(=O)N[C@H]1CC[C@H](O)CC1` [Compound S-9] stands below 100 nM.
On to `COc1ccc(-c2sc(NC(C)C3CCOCC3)nc2C)cc1S(=O)(=O)Nc1cccnc1C` (stereo not shown) [Compound S-331], for which the EC50 with HRV and in the assay on EV71 was 1 to 100 nM each time.
`Cc1ccc(-c2sc(NC(=O)CC3CCCC3)nc2C)cc1S(=O)(=O)NC1CCNCC1` [Compound S-188] gave an IC50 against PI4KIIIB below 100 nM.
As for `COc1ccc(-c2sc(N[C@H](C)C3CCCCC3)nc2C)cc1S(=O)(=O)N[C@H]1CCNC1` [Compound S-201], the IC50 against PI4KIIIB was below 100 nM.
As for `COc1ccc(-c2sc(NC(C)C3CCOCC3)nc2C)cc1S(=O)(=O)Nc1c(F)cccc1F` (stereo not shown) [Compound S-321], the EC50 in the assay with HRV and in the assay with EV71 was 1 to 100 nM each time.
Take `COc1ccc(-c2sc(NC(C)C3CCOCC3)nc2C)cc1S(=O)(=O)Nc1ncccc1F` (stereo not shown) [Compound S-330]: the EC50 is 1000 to 10000 nM with HRV and 100 to 1000 nM in the assay with EV71.
The matching figures for `COc1ncc(-c2sc(NC(C)C3CCOCC3)nc2C)cc1S(=O)(=O)Nc1ccccc1F` (stereo not shown) [Compound S-339]: 1 to 100 nM and 1 to 100 nM.
With `COc1ccc(-c2sc(NC(=O)CC3CCCC3)nc2C)cc1S(=O)(=O)NCCCCO` [Compound S-152], the IC50 against PI4KIIIB was below 100 nM.
